Active and inactive are the calls of the source. No rule for the calls is given here.

For this series, the system named is CCRIS mutagenicity, Ames/micronucleus/aberration tests. Briefly: CCRIS mutagenicity studies.
Setting [1] is: Test System: AMES SALMONELLA TYPHIMURIUM, Strain/Indicator: TA98, Metabolic Activation: NONE, Method: STANDARD PLATE.
Where [2] appears, read: Test System: AMES SALMONELLA TYPHIMURIUM, Strain/Indicator: TA100, Metabolic Activation: NONE, Method: STANDARD PLATE.
[3] abbreviates: Test System: AMES SALMONELLA TYPHIMURIUM, Strain/Indicator: TA98, Metabolic Activation: NONE, Method: PREINCUBATION
Where [4] appears, read: Test System: AMES SALMONELLA TYPHIMURIUM, Strain/Indicator: TA100, Metabolic Activation: NONE, Method: PREINCUBATION
Setting [5] is: Test System: AMES SALMONELLA TYPHIMURIUM, Strain/Indicator: TA1535, Metabolic Activation: NONE, Method: PREINCUBATION
[6] abbreviates: Test System: AMES SALMONELLA TYPHIMURIUM, Strain/Indicator: TA1537, Metabolic Activation: NONE, Method: PREINCUBATION

In the case of `O=[N+]([O-])CBr`, the mutagenic call runs as follows: (End Point: In vitro micronucleus, Test System: Human lymphoblastoid TK6 cells, Metabolic Activation: None) “inactive; negative”; (End Point: In vitro micronucleus, Test System: Human peripheral blood lymphocytes, Metabolic Activation: None) “inactive; negative”; (Test System: Ames Salmonella typhimurium, Strain/Indicator: RSJ100, Metabolic Activation: None, Method: Standard plate) “inactive; negative”; (Test System: Ames Salmonella typhimurium, Strain/Indicator: RSJ100, Metabolic Activation: Rat, Liver, S-9, Aroclor, Method: Standard plate) “inactive; negative”; (Test System: Ames Salmonella typhimurium, Strain/Indicator: TA98, Metabolic Activation: None, Method: Standard plate) “inactive; negative”; (Test System: Ames Salmonella typhimurium, Strain/Indicator: TA98, Metabolic Activation: Rat, Liver, S-9, Aroclor, Method: Standard plate) “inactive; negative”. Moreover, the mutagenic call runs as follows: (Test System: Ames Salmonella typhimurium, Strain/Indicator: TA100, Metabolic Activation: None, Method: Standard plate) “active; positive”; (Test System: Ames Salmonella typhimurium, Strain/Indicator: TA100, Metabolic Activation: Rat, Liver, S-9, Aroclor, Method: Standard plate) “active; positive”; (Test System: Ames Salmonella typhimurium, Strain/Indicator: TA104, Metabolic Activation: None, Method: Standard plate) “inactive; negative”; (Test System: Ames Salmonella typhimurium, Strain/Indicator: TPT100, Metabolic Activation: None, Method: Standard plate) “inactive; negative”.

As for `CC(C)(C)N.CC(C)(C)N.[Cl][Pt][Cl]`, the mutagenic call is “inactive; negative” (Test System: AMES SALMONELLA TYPHIMURIUM, Strain/Indicator: TA92, Metabolic Activation: NONE, Method: STANDARD PLATE); “active; positive” under setting [1]; “active; positive” under setting [2]; “active; positive” (Test System: AMES SALMONELLA TYPHIMURIUM, Strain/Indicator: TA2410, Metabolic Activation: NONE, Method: STANDARD PLATE).

As for `OCC(Cl)(Cl)Cl`, the mutagenic call runs as follows: (Test System: AMES SALMONELLA TYPHIMURIUM, Strain/Indicator: TA100, Metabolic Activation: NONE, Method: BAG VAPORIZATION) “inactive; negative”; (Test System: AMES SALMONELLA TYPHIMURIUM, Strain/Indicator: TA100, Metabolic Activation: RAT, LIVER, S-9, AROCLOR 1254, Method: BAG VAPORIZATION) “inactive; negative”.

Regarding `C1=CC23CCCC2(C=C1)O3` (configuration not stated), the mutagenic call under setting [1] is “inactive; negative”; the mutagenic call under setting [2] is “active; positive”; the mutagenic call (Test System: AMES SALMONELLA TYPHIMURIUM, Strain/Indicator: TM677/8-AZAGUANINE, Metabolic Activation: NONE, Method: STANDARD PLATE) was “active; positive”.

As to `Nc1cccc(Cl)c1`, the mutagenic call by setting is: (End Point: IN VITRO CHROMOSOMAL ABERRATIONS, Test System: CHL/IU CELLS, Metabolic Activation: NONE) “active; positive (structural changes)”; (End Point: IN VITRO MICRONUCLEUS, Test System: CHL/IU CELLS, Metabolic Activation: NONE) “active; positive”; under setting [3], “inactive; negative”; (Test System: AMES SALMONELLA TYPHIMURIUM, Strain/Indicator: TA98, Metabolic Activation: RAT, LIVER, S-9, AROCLOR 1254 (10%), Method: PREINCUBATION) “inactive; negative”; (Test System: AMES SALMONELLA TYPHIMURIUM, Strain/Indicator: TA100, Metabolic Activation: HAMSTER, LIVER, S-9, AROCLOR 1254 (10%), Method: PREINCUBATION) “inactive; negative”; under setting [4], “inactive; negative”. For the same molecule, the mutagenic call (Test System: AMES SALMONELLA TYPHIMURIUM, Strain/Indicator: TA100, Metabolic Activation: RAT, LIVER, S-9, AROCLOR 1254 (10%), Method: PREINCUBATION) is “inactive; negative”; the mutagenic call (Test System: AMES SALMONELLA TYPHIMURIUM, Strain/Indicator: TA1535, Metabolic Activation: HAMSTER, LIVER, S-9, AROCLOR 1254 (10%), Method: PREINCUBATION) is “inactive; negative”; the mutagenic call under setting [5] is “inactive; negative”; the mutagenic call (Test System: AMES SALMONELLA TYPHIMURIUM, Strain/Indicator: TA1535, Metabolic Activation: RAT, LIVER, S-9, AROCLOR 1254 (10%), Method: PREINCUBATION) was “inactive; negative”; the mutagenic call (Test System: AMES SALMONELLA TYPHIMURIUM, Strain/Indicator: TA1537, Metabolic Activation: HAMSTER, LIVER, S-9, AROCLOR 1254 (10%), Method: PREINCUBATION) is “inactive; negative”; the mutagenic call under setting [6] was “inactive; negative”. Besides, the mutagenic call is, setting by setting: (Test System: AMES SALMONELLA TYPHIMURIUM, Strain/Indicator: TA1537, Metabolic Activation: RAT, LIVER, S-9, AROCLOR 1254 (10%), Method: PREINCUBATION) “inactive; negative”; (Test System: CHINESE HAMSTER V-79, Strain/Indicator: V-79/8-AZAGUANINE, Metabolic Activation: NONE, Method: SUSPENSION/PLATE) “active; positive”; (Test System: CHINESE HAMSTER V-79, Strain/Indicator: V-79/OUABAIN, Metabolic Activation: NONE, Method: SUSPENSION/PLATE) “inactive; negative”.

As for `N#Cc1ccc(CO)cc1`, the mutagenic call under setting [2] was “inactive; negative”.

With `CO[C@H](C(=O)[C@@H](O)[C@@H](C)O)[C@@H]1Cc2cc3cc(O[C@H]4C[C@@H](O[C@H]5C[C@@H](O)[C@H](O)[C@@H](C)O5)[C@H](O)[C@@H](C)O4)c(C)c(O)c3c(O)c2C(=O)[C@H]1O[C@H]1C[C@@H](O[C@H]2C[C@@H](O[C@H]3C[C@](C)(O)[C@H](O)[C@@H](C)O3)[C@@H](O)[C@@H](C)O2)[C@H](O)[C@@H](C)O1`, the mutagenic call (Test System: CHINESE HAMSTER OVARY, Strain/Indicator: CHO (HGPRT)/6-THIOGUANINE, Metabolic Activation: NONE, Method: PREINCUBATION) is “active; positive”.

For the molecule `OCCOCCOCCO`, the mutagenic call by setting is: under setting [3], “inactive; negative”; (Test System: AMES SALMONELLA TYPHIMURIUM, Strain/Indicator: TA98, Metabolic Activation: RAT LIVER S-9, PHENOBARBITAL AND BETA-NAPHTHOFLAVONE, Method: PREINCUBATION) “inactive; negative”; under setting [4], “inactive; negative”; (Test System: AMES SALMONELLA TYPHIMURIUM, Strain/Indicator: TA100, Metabolic Activation: RAT LIVER S-9, PHENOBARBITAL AND BETA-NAPHTHOFLAVONE, Method: PREINCUBATION) “inactive; negative”; under setting [5], “inactive; negative”; (Test System: AMES SALMONELLA TYPHIMURIUM, Strain/Indicator: TA1535, Metabolic Activation: RAT LIVER S-9, PHENOBARBITAL AND BETA-NAPHTHOFLAVONE, Method: PREINCUBATION) “inactive; negative”. For the same molecule, the mutagenic call is, setting by setting: under setting [6], “inactive; negative”; (Test System: AMES SALMONELLA TYPHIMURIUM, Strain/Indicator: TA1537, Metabolic Activation: RAT LIVER S-9, PHENOBARBITAL AND BETA-NAPHTHOFLAVONE, Method: PREINCUBATION) “inactive; negative”; (Test System: AMES SALMONELLA TYPHIMURIUM, Strain/Indicator: TA1538, Metabolic Activation: NONE, Method: PREINCUBATION) “inactive; negative”; (Test System: AMES SALMONELLA TYPHIMURIUM, Strain/Indicator: TA1538, Metabolic Activation: RAT LIVER S-9, PHENOBARBITAL AND BETA-NAPHTHOFLAVONE, Method: PREINCUBATION) “inactive; negative”; (Test System: E.COLI, Strain/Indicator: WP2UVRA, Metabolic Activation: NONE, Method: PREINCUBATION) “inactive; negative”; (Test System: E.COLI, Strain/Indicator: WP2UVRA, Metabolic Activation: RAT LIVER S-9, PHENOBARBITAL AND BETA-NAPHTHOFLAVONE, Method: PREINCUBATION) “inactive; negative”.

For the molecule `OC(c1ccc(Cl)cc1)(c1ccc(Cl)cc1)C(Cl)(Cl)Cl`, the mutagenic call is, setting by setting: (End Point: IN VITRO CHROMOSOMAL ABERRATIONS, Test System: CHINESE HAMSTER OVARY CELLS, Metabolic Activation: NONE) “inactive; negative”; (End Point: IN VITRO CHROMOSOMAL ABERRATIONS, Test System: CHINESE HAMSTER OVARY CELLS, Metabolic Activation: RAT, LIVER, S-9, AROCLOR 1254) “inactive; negative”; (End Point: IN VIVO MICRONUCLEUS, Test System: BONE MARROW POLYCHROMATIC ERYTHROCYTES, Species: MOUSE, Strain/Sex: SWISS/MALE, FEMALE, Route: IP 2X IN AQUEOUS SUSPENSION WITHIN 24 HR) “inactive; negative”.

As for `CCCOC(=O)C=Cc1ccc([N+](=O)[O-])o1`, under setting [3], the mutagenic call is “active; positive”.

Source of the values: PubChem BioAssay AID1259407 (Chemical Carcinogenesis Research Information System (CCRIS), 2018).
